According to the CheMixHub drug solubility set:

Test: xn = mol fraction of the nth substance listed, in the solute-free solvent

FC(F)(F)c1cccnc1Cl + CN(C)C=O + CCO
solubility (g/100 g solution)
Details	263.15 K	268.15 K	273.15 K	278.15 K	283.15 K	288.15 K	293.15 K	298.15 K	303.15 K
x2 = 0.2013	36.2	43.5	51.6	59	67	74.8	82.5	89.4	95.4
x2 = 0.3352	41.2	48.1	56.3	62.5	69.5	77	83.4	90.3	96
x2 = 0.5291	47.4	53.8	60.5	66.9	73.2	79.9	85.7	91.4	96.8
x2 = 0.7496	51.2	57.2	63.7	69.6	75.4	81.3	86.7	92.5	97.7

CCOc1ccccc1C(N)=O + CO + CC#N
solubility (g/100 g solution)
Details	x2 = 0.1	x2 = 0.2	x2 = 0.3	x2 = 0.4	x2 = 0.5	x2 = 0.6	x2 = 0.7	x2 = 0.8	x2 = 0.9
293.15 K	3.86	5.1	6.26	7.41	8.25	8.88	8.99	8.83	8.26
298.15 K	4.9	6.33	7.81	9.11	10.1	11	11.1	10.7	10.1
303.15 K	6.47	8.36	10.2	11.5	12.8	13.6	13.7	13.4	12.6
308.15 K	8.43	10.8	12.9	14.4	15.6	16.5	16.4	16.3	15.1
313.15 K	10.8	13.5	16	18.1	19.3	20.4	20.4	19.8	18.5
318.15 K	13.7	16.8	19.7	21.9	23.4	24.4	24.5	24	22.7
323.15 K	17.3	21	24	26.4	28.3	29.2	29.3	28.5	27.1

Cl.NC(Cc1ccccc1)C(=O)OCc1ccccc1 (stereo not drawn) + CO + CC(C)=O
solubility (g/100 g solution)
Details	x2 = 0.1	x2 = 0.2	x2 = 0.3	x2 = 0.4	x2 = 0.5	x2 = 0.6	x2 = 0.7	x2 = 0.8	x2 = 0.9
283.15 K	0.104	0.31	1.34	2.29	3.85	5.52	7.5	9.27	11.1
293.15 K	0.238	0.665	1.52	2.75	4.55	6.53	8.94	11	13.1
303.15 K	0.306	0.778	1.83	3.37	5.58	7.97	10.7	13.6	15.5
313.15 K	0.482	0.999	2.35	4.15	6.96	9.8	13.2	15.8	18.4
323.15 K	0.588	1.3	2.96	5.13	8.44	12.1	15.8	19.4	21.6

C#CC1(O)CCC2C3CCC4=CC(=O)CCC4C3C(=C)CC21CC (stereo not drawn) + CO + O
solubility (g/100 g solution)
Details	x2 = 0.05881	x2 = 0.1233	x2 = 0.1942	x2 = 0.2727	x2 = 0.3599	x2 = 0.4576	x2 = 0.5675	x2 = 0.6923	x2 = 0.835
273.15 K	0.987	1.09	1.19	1.31	1.32	1.44	1.45	1.62	3.44
278.15 K	1.1	1.19	1.31	1.46	1.47	1.6	1.7	1.9	3.82
283.15 K	1.2	1.28	1.43	1.59	1.61	1.74	1.95	2.15	4.22
288.15 K	1.31	1.39	1.56	1.75	1.77	1.88	2.21	2.46	4.66
293.15 K	1.42	1.49	1.68	1.91	1.92	2.03	2.49	2.8	5.13
298.15 K	1.52	1.59	1.8	2.05	2.08	2.17	2.74	3.18	5.62
303.15 K	1.62	1.68	1.91	2.21	2.23	2.3	3.01	3.61	6.16
308.15 K	1.71	1.76	2.01	2.35	2.38	2.43	3.28	4.07	6.71
313.15 K	1.79	1.84	2.12	2.48	2.51	2.54	3.54	4.52	7.27
318.15 K	1.86	1.92	2.21	2.62	2.66	2.64	3.78	5.05	7.92
323.15 K	1.93	1.98	2.29	2.73	2.78	2.72	4	5.59	8.54
